Measurements from ChEMBL document CHEMBL4819065, “Gelstriamine A, a Triamino Monoterpene Indole Alkaloid with a Caged 6/5/7/6/6/5 Scaffold and Analgesic Alkaloids from Gelsemium elegans Stems” (2021).
The source made the active and inactive calls. The rule behind the calls is not given here.

Tested on: Mus musculus
Assay: Analgesic activity in Kunming mouse assessed as inhibition of acetic acid-induced writhing at 5 mg/kg, ip pretreated with compound for 30 mins followed by acetic acid challenge and measured after 30 mins
Type: functional, organism-based
Conditions: time 60.0 min

SMILES | Activity
C/C=C1\C[N@+](C)([O-])[C@H]2C[C@@]3(C(=O)Nc4ccccc43)[C@H]3C[C@@H]1[C@@H]2CO3 | Active
C/C=C1\CN(C)[C@H]2C[C@@]3(C(=O)N(OC)c4ccccc43)[C@H]3C[C@@H]1[C@@H]2CO3 | Active
C/C=C1\CN2[C@H]3C[C@@H]1[C@@H](CO)[C@@H]2Cc1c3[nH]c2ccccc12 | Active
C/C=C1\CN(C)[C@H]2C[C@@]3(C(=O)N(OC)c4cc(O)ccc43)[C@H]3C[C@@H]1[C@@H]2CO3 | Active
C/C=C1\CN2[C@H]3C[C@@H]1[C@H](CO)[C@@H]2Cc1c3[nH]c2ccccc12 | Active
C/C=C1\CN(C)[C@H]2C[C@@]3(C(=O)Nc4ccccc43)[C@H]3C[C@@H]1[C@@H]2CO3 | Active
C/C=C1\C[N@+](C)([O-])[C@H]2C[C@@]3(C(=O)N(OC)c4cc(O)ccc43)[C@H]3C[C@@H]1[C@@H]2CO3 | Active
COc1ccc2c(c1)N(OC)C(=O)[C@@]21C[C@@H]2N[C@](CO)([C@@H](C)O)[C@@H]3C[C@H]1OC[C@H]23 | Active
C=CC12CN[C@@H]3[C@H]4CO[C@H](CC41)[C@]1(C(=O)Nc4ccccc41)[C@@H]32 | Active
CC[C@@]12OC(=O)N[C@@H]1N(C)[C@H]1C[C@@]3(C(=O)N(OC)c4ccccc43)[C@H]3C[C@@H]2[C@@H]1CO3 | Active
C/C=C1\C[N@@+]2([O-])[C@H]3C[C@@H]1[C@@H](CO)[C@@H]2Cc1c3[nH]c2ccccc12 | Active
C/C=C1\CN[C@H]2C[C@@]3(C(=O)N(OC)c4cc(OC)ccc43)[C@H]3C[C@@H]1[C@@H]2CO3 | Active
c1ccc2[nH]c(-c3cc4c(cn3)CCCC4)cc2c1 | Active
C=C[C@@]12CN[C@@H]3C[C@]14C(=Nc1ccccc14)[C@H]1C[C@@H]2[C@@H]3CO1 | Active
CON1C(=O)[C@@]2(C[C@@H]3N[C@](CO)([C@@H](C)O)[C@@H]4C[C@H]2OC[C@H]34)c2ccccc21 | Active
CC[C@@]1(CO)N[C@H]2C[C@@]3(C(=O)N(OC)c4ccccc43)[C@H]3C[C@@H]1[C@@H]2CO3 | Active
C/C=C1\C[N@+](C)([O-])[C@H]2C[C@@]3(C(=O)N(OC)c4ccccc43)[C@H]3C[C@@H]1[C@@H]2CO3 | Active

Tested on: Mus musculus
Assay: Analgesic activity in Kunming mouse assessed as inhibition of acetic acid-induced writhing at 1 mg/kg, ip pretreated with compound for 30 mins followed by acetic acid challenge and measured after 30 mins
Type: functional
Conditions: 1 h, time 60 min

SMILES | inhibition in vivo at 1 mg/kg [%]
CC[C@@]12OC(=O)N[C@@H]1N(C)[C@H]1C[C@@]3(C(=O)N(OC)c4ccccc43)[C@H]3C[C@@H]2[C@@H]1CO3 | 64.7

Tested on: Mus musculus
Assay: Analgesic activity in Kunming mouse assessed as inhibition of acetic acid-induced writhing at 0.04 mg/kg, ip pretreated with compound for 30 mins followed by acetic acid challenge and measured after 30 mins
Type: functional
Conditions: 1 h, time 60 min

SMILES | inhibition in vivo at 0.04 mg/kg [%]
C/C=C1\C[N@+](C)([O-])[C@H]2C[C@@]3(C(=O)Nc4ccccc43)[C@H]3C[C@@H]1[C@@H]2CO3 | 67.6

Tested on: Mus musculus
Assay: Analgesic activity in Kunming mouse assessed as inhibition of acetic acid-induced writhing at 0.2 mg/kg, ip pretreated with compound for 30 mins followed by acetic acid challenge and measured after 30 mins
Type: functional
Conditions: 1 h, time 60 min

SMILES | inhibition in vivo at 0.2 mg/kg [%]
C/C=C1\C[N@+](C)([O-])[C@H]2C[C@@]3(C(=O)Nc4ccccc43)[C@H]3C[C@@H]1[C@@H]2CO3 | 76.1
